Consider eight compounds from paper PMC7265341, “Quantifying CDK inhibitor selectivity in live cells” (Nature Communications, 2020).

Where two headings read alike, the source gives them in different places.

Test [1] has as its target CDK3/Cyclin E1 (Homo sapiens, UniProt Q00526). As to the kind of experiment: NanoBRET live-cell target engagement, CDK3-NanoLuc/Cyclin E1 in HEK-293. It counts as binding. In general terms: Bioluminescence resonance energy transfer reports proximity on the nanometre scale.
Test [2] concerns the target CDK2/Cyclin E1 (Homo sapiens, UniProt P24941). As to the kind of experiment: NanoBRET live-cell target engagement, CDK2-NanoLuc/Cyclin E1 in HEK-293. It is filed as binding.
Setting [3] is: CDK2/E1, n=3 average ± SEM, n=2 average to 2 significant figures, read-out: IC50 (nM) Average*.
[4] abbreviates: CDK2/E1, read-out: IC50 (nM) Replicate 1.
Where [5] appears, read: CDK2/E1, read-out: IC50 (nM) Replicate 2.
Where [6] appears, read: CDK3/E1, 10µM, average of replicates.
Setting [7] is: CDK3/E1, n=3 average ± SEM, n=2 average to 2 significant figures, read-out: IC50 (nM) Average*.
Setting [8] is: CDK3/E1, read-out: IC50 (nM) Replicate 1.
Where [9] appears, read: CDK3/E1, read-out: IC50 (nM) Replicate 2.
Where [10] appears, read: CDK3/E1, average, read-out: Inhibition at 10µM (%).
The mark [11] stands for this setting: CDK3/E1, experiment 1, read-out: Inhibition at 10µM (%).
The mark [12] stands for this setting: CDK3/E1, experiment 2, read-out: Inhibition at 10µM (%).
[13] abbreviates: CDK2/E1, average, read-out: Inhibition at 10µM (%).
The mark [14] stands for this setting: CDK2/E1, experiment 1, read-out: Inhibition at 10µM (%).
Setting [15] is: CDK2/E1, experiment 2, read-out: Inhibition at 10µM (%).
The mark [16] stands for this setting: CDK3/E1, average (± SEM where n=3), read-out: IC50.
Setting [17] is: CDK3/E1, experiment 1, read-out: IC50.
[18] abbreviates: CDK3/E1, experiment 2, read-out: IC50.
Where [19] appears, read: CDK2/E1, average (± SEM where n=3), read-out: IC50.
[20] abbreviates: CDK2/E1, experiment 1, read-out: IC50.
Where [21] appears, read: CDK2/E1, experiment 2, read-out: IC50.

In general, Inhibition refers to the share of the control response that was lost under treatment.

Sequence of CDK3/Cyclin E1 (Q00526 whole entry): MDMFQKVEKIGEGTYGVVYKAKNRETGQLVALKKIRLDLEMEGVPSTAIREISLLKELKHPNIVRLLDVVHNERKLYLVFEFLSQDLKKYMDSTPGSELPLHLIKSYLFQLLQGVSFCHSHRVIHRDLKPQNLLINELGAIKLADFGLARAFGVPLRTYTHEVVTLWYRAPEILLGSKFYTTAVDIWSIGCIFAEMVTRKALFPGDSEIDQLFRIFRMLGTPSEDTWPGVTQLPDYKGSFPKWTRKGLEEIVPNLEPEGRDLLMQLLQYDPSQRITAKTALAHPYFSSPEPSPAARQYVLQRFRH
Sequence of CDK3/Cyclin E1 (P24864 whole entry partner): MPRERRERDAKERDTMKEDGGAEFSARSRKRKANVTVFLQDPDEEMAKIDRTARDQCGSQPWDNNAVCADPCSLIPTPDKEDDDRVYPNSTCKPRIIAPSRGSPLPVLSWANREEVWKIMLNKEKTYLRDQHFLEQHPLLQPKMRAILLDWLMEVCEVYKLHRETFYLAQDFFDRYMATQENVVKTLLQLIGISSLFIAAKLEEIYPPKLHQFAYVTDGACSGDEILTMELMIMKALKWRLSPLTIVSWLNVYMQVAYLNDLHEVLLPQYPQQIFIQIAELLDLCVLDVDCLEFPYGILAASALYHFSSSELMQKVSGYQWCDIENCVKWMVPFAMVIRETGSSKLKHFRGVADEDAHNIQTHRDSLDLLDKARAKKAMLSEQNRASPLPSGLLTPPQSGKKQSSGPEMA

Turning to `C[C@H]1CC[C@H](n2c3cnccc3c3cnc(Nc4ccc5c(n4)CCN(C(=O)CO)C5)nc32)CC1` [AMG 925], the inhibition at 10 µM in test [1] (read-out: Inhibition at 10µM (%) Average, CDK3/E1, 10µM, average of replicates) amounted to 54.2%; in test [1] (read-out: Inhibition at 10µM (%) Replicate 1, CDK3/E1, 10µM), 39.2%; in test [1] (read-out: Inhibition at 10µM (%) Replicate 2, CDK3/E1, 10µM), 69.3%; in test [2] (CDK2/E1, 10µM, average of replicates, read-out: Inhibition at 10µM (%) Average), 63.9%; in test [2] (CDK2/E1, 10µM, read-out: Inhibition at 10µM (%) Replicate 1), 40.8%; in test [2] (CDK2/E1, 10µM, read-out: Inhibition at 10µM (%) Replicate 2), 87%. For the same compound, the IC50 was found to be 310 ± 70 nM in test [2] (setting [3]); 171 nM in test [2] (setting [4]); 400 nM in test [2] (setting [5]); 370 nM in test [2] (CDK2/E1, read-out: IC50 (nM) Replicate 3).
On to `CNC1CCN(C(=O)c2ccc(Nc3ncc(F)c(-c4cnc(C)n4C(C)C)n3)cc2)C1` (stereo not shown) [AZD5597], for which the “Inhibition at 10µM (%) Replicate 1” value stood at 99.1% in test [1] (CDK3/E1, 10µM) and 99.9% in test [2] (CDK2/E1, 10µM). In addition, the “Inhibition at 10µM (%) Replicate 2” value stood at 98.8% in test [1] (CDK3/E1, 10µM) and 99.7% in test [2] (CDK2/E1, 10µM). Further, the “Inhibition at 10µM (%) Average” value in test [1] (setting [6]) is 98.9%; in test [2] (CDK2/E1, 10µM, average of replicates), 99.8%. The IC50 in test [1] (setting [7]) is 3.4 nM; in test [1] (setting [8]), 1.6 nM; in test [1] (setting [9]), 5.2 nM; in test [2] (setting [3]), 6.6 nM; in test [2] (setting [4]) it was 6.7 nM; in test [2] (setting [5]), 6.4 nM.
In the case of `CC(C)c1cnn2c(NCc3ccccc3)cc(N[C@@H](CO)[C@H](O)CO)nc12` [BS-194], the “Inhibition at 10µM (%) Replicate 1” value in test [1] (CDK3/E1, 10µM) was determined as 96.7%. The “Inhibition at 10µM (%) Replicate 2” value in test [1] (CDK3/E1, 10µM) is given as 97.8%. Moreover, the “Inhibition at 10µM (%) Average” value in test [1] (setting [6]) was determined as 97.3%. In addition, the IC50 in test [1] (setting [7]) was found to be 7.8 nM; in test [1] (setting [8]) it was 6.9 nM; in test [1] (setting [9]) it was 8.6 nM.
As to `COc1ccc(F)cc1-c1cc(NC(=O)C2CCCNC2)ncc1Cl` (stereo not shown) [CDK inhibitor 2], the inhibition at 10 µM worked out at 92.7% in test [1] (setting [10]); 92.3% in test [1] (setting [11]); 93% in test [1] (setting [12]); 65.6% in test [2] (setting [13]); 61.9% in test [2] (setting [14]); 69.3% in test [2] (setting [15]).
Consider `CCn1cnc2c(Nc3cccc(Cl)c3)nc(N[C@@H]3CCCC[C@@H]3N)nc21` [CGP74514A], for which the “Inhibition at 10µM (%)” value in test [1] (CDK3/E1, average) is given as 92.7%; in test [1] (CDK3/E1, experiment 1) it was 92.6%; in test [1] (CDK3/E1, experiment 2), 92.8%; in test [2] (CDK2/E1, average), 94.2%; in test [2] (CDK2/E1, experiment 1), 93.3%; in test [2] (CDK2/E1, experiment 2), 95.2%. The IC50 in test [1] (setting [16]) stood at 75 nM; in test [1] (setting [17]) it was 39 nM; in test [1] (setting [18]) it was 110 nM; in test [2] (setting [19]), 62 nM; in test [2] (setting [20]) it was 63 nM; in test [2] (setting [21]), 60 nM.
As for `CN1CC[C@H](c2c(O)cc(O)c3c(=O)cc(-c4ccccc4Cl)oc23)[C@H](O)C1` [Flavopiridol], the inhibition at 10 µM was found to be 80.6% in test [1] (setting [10]); 78% in test [1] (setting [11]); 83.3% in test [1] (setting [12]); 75% in test [2] (setting [13]); 74.5% in test [2] (setting [14]); 75.4% in test [2] (setting [15]).
As to `COc1ccccc1-c1cc(Nc2cccc(CS(N)(=O)=O)c2)ncn1` [LDC000067], the inhibition at 10 µM in test [1] (setting [10]) was determined as 27.7%; in test [1] (setting [11]), 23.7%; in test [1] (setting [12]) it was 31.7%; in test [2] (setting [13]) it was 18.7%; in test [2] (setting [14]) it was 15.1%; in test [2] (setting [15]) it was 22.2%.
For `CC(C)c1cnn2c(NCc3ccccc3-n3cccn3)nc(OC3CCCNC3)nc12` (stereo not shown) [LDC4297], the “Inhibition at 10µM (%)” value in test [1] (CDK3/E1, average) is given as 89.3%; in test [1] (CDK3/E1, experiment 1), 89.3%; in test [1] (CDK3/E1, experiment 2), 89.4%; in test [2] (CDK2/E1, average), 88.3%; in test [2] (CDK2/E1, experiment 1), 85.3%; in test [2] (CDK2/E1, experiment 2), 91.3%. Moreover, the IC50 turned out to be 240 ± 70 nM in test [1] (setting [16]); 121 nM in test [1] (setting [17]); 370 nM in test [1] (setting [18]); 234 nM in test [1] (CDK3/E1, experiment 3, read-out: IC50); 85 ± 2 nM in test [2] (setting [19]); 81 nM in test [2] (setting [20]). Further, the IC50 came out at 86 nM in test [2] (setting [21]); 85 nM in test [2] (CDK2/E1, experiment 3, read-out: IC50); 85 ± 2 nM in test [2] (live HEK-293, 2 h, mean ± S.E.M. (n=3) or mean (n=2), read-out: IC50 for CDK/cyclin complexes, CDK2/E1).
